Laboratory results published in patent US12024510B2, “Pyrazolopyridine-diamides, their use as insecticide and processes for preparing the same” (PI INDUSTRIES LTD., priority 2017, dated 2024).

Key:
Format in all cases: in vivo
Spodoptera litura = Spodoptera litura diet incorporation method; details: third instar larvae, dead and moribund combined, 96 h after release
Outline: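 Compound milled to <2 μm average particle size in surfactant, dispersed in water (500 ppm stock dispersion), then mixed into semi-synthetic diet at ~50° C. One starved third-instar larva per diet cell, 25° C, 70% RH; percent mortality (dead plus moribund) scored at 96 h.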

Plutella xylostella = assay: whole plant or invertebrate; details: foliar, cabbage leaf dip, second instar larvae, dead and moribund combined, 72 h after release
Outline: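 Compounds milled with zirconia beads into surfactant dispersion (500 ppm stock), diluted in 0.01% Triton-X. Cabbage leaves dipped 10 s, shade-dried 20 min; one second-instar larva per cell, 25 °C, 70% RH. Mortality (dead plus moribund) scored at 72 h.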

Helicoverpa armigera = Helicoverpa armigera diet incorporation method; details: third instar larvae, dead and moribund combined, 96 h after release
Outline: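 500 ppm stock of compound milled with surfactant and zirconia beads to average particle size below 2 μm, dispersed in DM water, diluted as needed, and mixed into semi-synthetic diet at about 50° C. Single starved third-instar larvae per cell, held at 25° C., 70% RH; dead plus moribund larvae scored as percent mortality at 96 h.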

Measured: mortality at 300 ppm

Cc1cc2ccnn2c(C(=O)NC(C)(C)CO)c1NC(=O)c1cc(Br)nn1-c1ncccc1Cl [Compound 196, 6-(3-bromo-1-(3-chloropyridin-2-yl)-1H-pyrazole-5-carboxamido)-N-(1-hydroxy-2-methylpropan-2-yl)-5-methylpyrazolo[1,5-a]pyridine-7-carboxamide]
> 70%: all assays above

COc1cc(C(=O)Nc2c(C)cc3ccnn3c2C(=O)NC(C)(C)CO)n(-c2ncccc2Cl)n1 [Compound 197, 6-(1-(3-chloropyridin-2-yl)-3-methoxy-1H-pyrazole-5-carboxamido)-N-(1-hydroxy-2-methylpropan-2-yl)-5-methylpyrazolo[1,5-a]pyridine-7-carboxamide]
> 70%: all assays above

COc1cc(C(=O)Nc2c(C)cc3ccnn3c2C(=O)NCC2CCOCC2)n(-c2ncccc2Cl)n1 [Compound 201, 6-(1-(3-chloropyridin-2-yl)-3-methoxy-1H-pyrazole-5-carboxamido)-5-methyl-N-((tetrahydro-2H-pyran-4-yl)methyl)pyrazolo[1,5-a]pyridine-7-carboxamide]
> 70%: all assays above

COc1cc(C(=O)Nc2c(C)cc3ccnn3c2C(=O)NCC2CCCC2)n(-c2ncccc2Cl)n1 [Compound 203, 6-(1-(3-chloropyridin-2-yl)-3-methoxy-1H-pyrazole-5-carboxamido)-N-(cyclopentylmethyl)-5-methylpyrazolo[1,5-a]pyridine-7-carboxamide]
> 70%: all assays above

COc1cc(C(=O)Nc2c(C)cc3ccnn3c2C(=O)NCC(F)F)n(-c2ncccc2Cl)n1 [Compound 214, 6-(1-(3-chloropyridin-2-yl)-3-methoxy-1H-pyrazole-5-carboxamido)-N-(2,2-difluoroethyl)-5-methylpyrazolo[1,5-a]pyridine-7-carboxamide]
> 70%: all assays above

COc1cc(C(=O)Nc2c(C)cc3ccnn3c2C(=O)NC2CSC2)n(-c2ncccc2Cl)n1 [Compound 215, 6-(1-(3-chloropyridin-2-yl)-3-methoxy-1H-pyrazole-5-carboxamido)-5-methyl-N-(thietan-3-yl)pyrazolo[1,5-a]pyridine-7-carboxamide]
> 70%: all assays above

COc1cc(C(=O)Nc2c(Br)cc3ccnn3c2C(=O)NC(C)C(F)(F)F)n(-c2ncccc2Cl)n1 (stereo not drawn) [Compound 226, 5-bromo-6-(1-(3-chloropyridin-2-yl)-3-methoxy-1H-pyrazole-5-carboxamido)-N-(1,1,1-trifluoropropan-2-yl)pyrazolo[1,5-a]pyridine-7-carboxamide]
> 70%: all assays above
